This note sets out measurements from US20130028987A1, “Method of treating psoriasis” (priority 2011, published 2013).

In this assay the test system is phosphorylase kinase. Nature of the assay: inhibition of phosphorylase kinase activity. Type of assay: biochemical. The note with it: findings of the instant inventor; no experiment described.

As for `COc1cc(/C=C/C(=O)CC(=O)/C=C/c2ccc(O)c(OC)c2)ccc1O` [Curcumin], the “inhibition of phosphorylase kinase” value is “selective and non-competitive inhibitor of phosphorylase kinase”.
